Experimental data taken from ChEMBL document CHEMBL1201862, “PubChem BioAssay data set” (2004).
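The compound was tested at five concentrations on cells cultured in 96-well plates, with a 48-hour exposure period. The concentration for 50% growth inhibition is given as GI50.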 Active and inactive are the calls of the source. Rule as the data show it: active = GI50 up to about 1.1 µM and inactive = higher.

Tests used:
Test in all cases: NCI-60 cell line screen, 48 h
[1] = tested on: HCT-116
[2] = tested on: NCI-H23
[3] = tested on: M14
[4] = tested on: OVCAR-8
[5] = tested on: U-251
[6] = tested on: COLO 205
[7] = tested on: SR
[8] = tested on: SN12C
[9] = tested on: UACC-257
[10] = tested on: MOLT-4
[11] = tested on: NCI-H460
[12] = tested on: SK-OV-3
[13] = tested on: A498
[14] = tested on: 786-0
[15] = tested on: SK-MEL-5
[16] = tested on: SF-268
[17] = tested on: LOX IMVI
[18] = tested on: RPMI-8226

Row | SMILES | GI50 [1] | GI50 [2] | GI50 [3] | GI50 [4] | GI50 [5] | GI50 [6] | GI50 [7] | GI50 [8] | GI50 [9] | GI50 [10] | GI50 [11] | GI50 [12] | GI50 [13] | GI50 [14] | GI50 [15] | GI50 [16] | GI50 [17] | GI50 [18]
1 | C=CCN1C[C@H](C)N([C@H](c2ccc(C(=O)NC(CC)CC)cc2)c2cccc(OC)c2)C[C@H]1C | 21.6 µM (inactive) | 43.2 µM (inactive) | 17.7 µM (inactive) | 62.5 µM (inactive) | 34 µM (inactive) | 17.9 µM (inactive) | 23.7 µM (inactive) | 36.8 µM (inactive) | 26.2 µM (inactive) | > 100 µM (inactive) | 31 µM (inactive) | > 100 µM (inactive) | 21.7 µM (inactive) | 34.6 µM (inactive) | 17.9 µM (inactive) | 83.2 µM (inactive) | 4.38 µM (inactive) | 
2 | CN(C)CCNC(=O)c1cccc2c1Oc1cccc([N+](=O)[O-])c1O2 | 16.9 µM (inactive) | 24.7 µM (inactive) | 16.2 µM (inactive) | 20.8 µM (inactive) | 21 µM (inactive) | 21.6 µM (inactive) | 21.1 µM (inactive) | 23.3 µM (inactive) | 18.5 µM (inactive) | 4.74 µM (inactive) | 17.3 µM (inactive) | 14 µM (inactive) | 15 µM (inactive) | 19.2 µM (inactive) | 19.1 µM (inactive) | 21.2 µM (inactive) |  | 
3 | COc1ccc(C2=NNC(c3cc4cc(Br)ccc4nc3Cl)C2)cc1 (configuration not stated) | 10.5 µM (inactive) | 15.4 µM (inactive) | 11.5 µM (inactive) |  |  | 11.7 µM (inactive) | 0.185 µM (active) | 7.66 µM (inactive) | 12.2 µM (inactive) | 3.82 µM (inactive) | 10 µM (inactive) |  | > 25 µM (inactive) | 15.9 µM (inactive) |  |  |  | 5.74 µM (inactive)
4 | NC1OC(COC(=O)c2ccccc2)C(O)C(OC(=O)c2ccccc2)C1OC(=O)c1ccccc1 (configuration not stated) | 18.8 µM (inactive) | 25.4 µM (inactive) | 24.3 µM (inactive) | 17.9 µM (inactive) | 17.7 µM (inactive) | 22.1 µM (inactive) | > 10 µM (inactive) | 24.3 µM (inactive) | 18.1 µM (inactive) | 14.7 µM (inactive) | 11.4 µM (inactive) | 41.3 µM (inactive) |  | 15.5 µM (inactive) | 14.4 µM (inactive) | 22.6 µM (inactive) | 14.4 µM (inactive) | > 100 µM (inactive)
5 | CC(=O)OCC1OC(n2c(C)c(C)c(C)c(C#N)c2=S)C(OC(C)=O)C(OC(C)=O)C1OC(C)=O (configuration not stated) | 28.6 µM (inactive) | > 100 µM (inactive) | 44 µM (inactive) | > 100 µM (inactive) | 27.6 µM (inactive) | > 100 µM (inactive) | > 100 µM (inactive) | > 100 µM (inactive) | > 100 µM (inactive) | > 100 µM (inactive) | > 100 µM (inactive) | 24.8 µM (inactive) | > 100 µM (inactive) | 23.7 µM (inactive) | > 100 µM (inactive) | 95.5 µM (inactive) | > 100 µM (inactive) | 
6 | CC(C)[C@]12O[C@H]1[C@@H]1O[C@]13[C@]1(O[C@H]1C[C@H]1C4=C(CC[C@@]13C)C(=O)OC4)[C@@H]2O [TRIPTOLIDE] | 0.00258 µM (active) | 0.00322 µM (active) | < 0.0136 µM (active) | 0.0203 µM (active) | 0.061 µM (active) | 0.00776 µM (active) | 0.0173 µM (active) | 0.00861 µM (active) |  | 0.00764 µM (active) | 0.00527 µM (active) | 0.0474 µM (active) | 0.018 µM (active) | 0.0169 µM (active) | 0.00697 µM (active) | 0.0249 µM (active) | 0.00514 µM (active) | 
7 | c1ccc(CNCCCCNCCCNCc2ccccc2)cc1 | 17.3 µM (inactive) | 22 µM (inactive) | 29.1 µM (inactive) | > 10 µM (inactive) | 17.8 µM (inactive) | 13.6 µM (inactive) | 17.6 µM (inactive) | 19.8 µM (inactive) | 17.3 µM (inactive) | 14.3 µM (inactive) | 15.3 µM (inactive) | > 100 µM (inactive) |  | 17.2 µM (inactive) | 17.6 µM (inactive) | 18.8 µM (inactive) | 17.7 µM (inactive) | 27.7 µM (inactive)
